Legend:
Swiss Albino mice = assay: In vivo pulmonary toxicity, lung histopathology with semiquantitative scoring (SQS)
Description: The animal study was approved by the Monash Animal Ethics Committee, Monash University (Victoria, Australia). All experiments were conducted in accordance with the Australian Code of Practice for the Care and Use of Animals for Scientific Purposes. Swiss Albino mice (female; age, 6 weeks; body weight, 20 to 25 g) were obtained from the Monash Animal Research Platform (Clayton, Victoria, Australia). […] Animals were housed individually in metabolic cages and had free access to food and water. Mice were intratracheally administered 10 mg/kg of polymyxin B, 120 mg/kg of polyaspartic acid and the combinations of polyaspartic acid with polymyxin B three times a day.
Histopathological examinations of lungs were performed to assess the pulmonary toxicity by polymyxin B. At 24 h following pulmonary administration, mice were humanely killed and lungs were harvested and fixed in formalin immediately. To avoid any potential artificial damage to the lung epithelium, bronchoalveolar lavage and cardiac puncture were not performed. A semiquantitative scoring (SQS) system was employed to quantify the extent of lung damages. ^20 Briefly, we used the following grades for the severity and nature of the histopathological changes in the lungs: grade 0, no changes or mild changes considered insignificant; grade 1, minimal lesions affecting 1 to 25% of the area; grade 2, multifocal lesions affecting 25 to 50% of the area; and grade 3, severe tissue changes affecting >50% of the area. The grades were given the following scores: grade 0, 0.1; grade 1, 1; grade 2, 4; and grade 3, 10. Percentages of damage across different levels of the lungs were given the following scores: <1%, 0; from 1 to <5%, 1; from 5 to <10%, 2; from 10 to <20%, 3; from 20 to <30%, 4; from 30 to <40%, 5; >40%, 6. The overall lung histology score was determined as the product of the grade and percent damage score. An SQS was assigned the following scores: SQS 0, no significant change; SQS+1, mild damage; SQS+2, mild to moderate damage; SQS+3, moderate damage; SQS+4, moderate to severe damage; and SQS+5, severe damage.

A549 cells [1] = assay: Cell viability of A549 cells, polymyxin B with or without polyaspartic acid, propidium iodide flow cytometry; format: cell-based, Human; details: 1.0 mM polymyxin B alone, 24 h
Description: (§1) Human lung epithelial cells (A549 cells) were obtained from the American Type Culture Collection (ATCC® CCL-185™, Manassas, VA, USA), grown and sub-cultured in Dulbecco's modified Eagle's medium (DMEM) supplemented with 10% fetal bovine serum (FBS). A549 cells (1×10^5 cells/mL, 12-well plate) were seeded in supplemented DMEM at 37° C. in a humidified atmosphere containing 5% CO2 until 70% confluency. All experiments were conducted in three replicates. Cells were treated with 1.0 mM polymyxin B in the presence and absence of polyaspartic acid (0.25, 1.0 and 5.0 mM); and cell viability were examined at 24 h with flow cytometry after staining with propidium iodide. The drug concentrations for different formulations were selected based on our previous results on polymyxin toxicity in human lung epithelial cells. ^18 To assess the protective effect of polyglutamic acid, A549 cells (0.5×10^5 cells/mL, 200 μL/well) were seeded on 96-well plates (#353072, Corning, USA) for overnight at 37° C. Cells were treated with 1.0 mM polymyxin B in the presence and absence of polyglutamic acid (2.5, 5.0 and 10.0 μM). Cell viability was determined at 24 h using propidium iodide staining using EVOS® FL Auto Imaging System (Invitrogen; Approximate fluorescence excitation/emission maxima: 535/617 nm). […] Three random fields containing at least 50 cells per treatment condition were analyzed.

A549 cells [2] = assay: Cell viability of A549 cells, polymyxin B with or without polyglutamic acid, propidium iodide imaging; format: cell-based, Human; details: 1.0 mM polymyxin B alone, 24 h
Description: as §1

A549 cells [3] = assay: Mitochondrial membrane potential (TMRE) in A549 cells; format: cell-based, Human; details: 1.0 mM polymyxin B alone; untreated control 100%
Description: (§2) The attenuation of mitochondrial superoxide formation and loss of mitochondrial membrane potential caused by polymyxin B were determined. ^18 A549 cells (0.5×10^5 cells/mL) were grown on 8-well chamber slides ([…] polymer coverslip, ibidi, Germany) for overnight at 37° C. Cells were treated with 1.0 mM polymyxin B in the presence and absence of polyaspartic acid (0.25, 1.0 and 5.0 mM). To assess the formation of mitochondrial superoxide and loss of mitochondrial membrane potential MitoSOX Red dye (Invitrogen; excitation and emission wavelengths of 514 and 531 to 622 nm, respectively) and TMRE (Invitrogen; excitation and emission wavelengths of 561 and 568 to 690 nm, respectively) were employed, respectively. Nuclei were stained with Hoechst 33342 (Invitrogen; excitation and emission wavelengths of 405 and 410 to 551 nm, respectively) to allow cell counting. Fluorescence intensity was quantified by confocal laser scanning microscopy (Leica SP8 inverted microscope equipped with a 63× oil immersion objective). The average fluorescence intensity per cell for each treatment was calculated using ImageJ (45, 46). Three random fields containing at least 50 cells per treatment condition were analyzed and the TMRE fluorescence in untreated control cells was set as 100%.

A549 cells [4] = assay: Mitochondrial superoxide formation (MitoSOX Red) in A549 cells; format: cell-based, Human; details: 1.0 mM polymyxin B alone, 24 h
Description: as §2

[5] = intratracheal three times a day, 10 mg/kg polymyxin B and/or 120 mg/kg polyaspartic acid, lungs at 24 h

## polymyxin B sulfate
Swiss Albino mice; [5]
  Histological finding in lung: no macroscopic lesion but severe tissue injury
  SQS of lung damage (grade): +2 to +5
Swiss Albino mice; intratracheal three times a day, 10 mg/kg polymyxin B or 120 mg/kg polyaspartic acid, lungs at 24 h
  Lung area affected by tissue injury: 25-50%
Swiss Albino mice; mean±SD, 10 mg/kg polymyxin B alone or co-administered with 120 mg/kg polyaspartic acid
  Overall semi-quantitative score (SQS) of lung damage: 3.0±1.4
A549 cells [1]
  Cell viability: 36.7±5.1%
A549 cells [2]
  Cell viability: 51.7±5.2%
A549 cells [3]
  Mitochondrial membrane potential compared to the control: 49.5±7.2%
A549 cells [4]
  MitoSOX fluorescence intensity, higher compared to the control: > 200 fold

From patent publication US20240058375A1, “CO-FORMULATION OF POLYMYXINS FOR INHALATION” (priority 2021, published 2024)
